Laboratory results taken from ChEMBL document CHEMBL4842333, “Catechol-Bearing Polyketide Derivatives from Sparticola junci” (2021).
Converted amounts (≈) assume the structure as drawn. The source made the active and inactive calls. The calls are words filed in the database; no cut-off is given here.

Legend:
[1] = system: Schizosaccharomyces pombe; assay: Antifungal activity against Schizosaccharomyces pombe DSM70572 assessed as inhibition of fungal growth by broth microdilution method; assay type: functional, organism-based
Mucor hiemalis = assay: Antifungal activity against Mucor hiemalis DSM2656 assessed as inhibition of fungal growth by broth microdilution method; assay type: functional, organism-based
Wickerhamomyces anomalus = assay: Antifungal activity against Pichia anomala DSM6766 assessed as inhibition of fungal growth by broth microdilution method; assay type: functional, organism-based
Rhodotorula glutinis = assay: Antifungal activity against Rhodotorula glutinis DSM1034 assessed as inhibition of fungal growth by broth microdilution method; assay type: functional, organism-based
Candida albicans = assay: Antifungal activity against Candida albicans DSM1665 assessed as inhibition of fungal growth by broth microdilution method; assay type: functional, organism-based
[2] = system: Mycolicibacterium smegmatis; assay: Antimycobacterial activity against Mycobacterium smegmatis ATCC700084 assessed as inhibition of mycobacterial growth by broth microdilution method; assay type: functional
PC-3 = assay: Cytotoxicity against human PC-3 cells assessed as cell growth inhibition incubated for 5 days by MTT assay; assay type: functional, cell-based; conditions: time 5.0 day
Staphylococcus aureus = assay: Antibacterial activity against Staphylococcus aureus DSM346 assessed as inhibition of bacterial growth by broth microdilution method; assay type: functional
SK-OV-3 = assay: Cytotoxicity against human SK-OV-3 cells assessed as cell growth inhibition incubated for 5 days by MTT assay; assay type: functional, cell-based; conditions: time 5.0 day
A549 = assay: Cytotoxicity against human A549 cells assessed as cell growth inhibition incubated for 5 days by MTT assay; assay type: functional, cell-based; conditions: time 5.0 day
A-431 = assay: Cytotoxicity against human A-431 cells assessed as cell growth inhibition incubated for 5 days by MTT assay; assay type: functional, cell-based; conditions: time 5.0 day
MCF7 = assay: Cytotoxicity against human MCF7 cells assessed as cell growth inhibition incubated for 5 days by MTT assay; assay type: functional, cell-based; conditions: time 5.0 day
L929 = assay: Cytotoxicity against mouse L929 cells assessed as cell growth inhibition incubated for 5 days by MTT assay; assay type: functional, cell-based; conditions: time 5.0 day
KB 3-1 = assay: Cytotoxicity against human KB 3-1 cells assessed as cell growth inhibition incubated for 5 days by MTT assay; assay type: functional, cell-based; conditions: time 5.0 day
[3] = system: Chromobacterium violaceum; assay: Antibacterial activity against Chromobacterium violaceum DSM30191 assessed as inhibition of bacterial growth by broth microdilution method; assay type: functional
Bacillus subtilis = assay: Antibacterial activity against Bacillus subtilis DSM10 assessed as inhibition of bacterial growth by broth microdilution method; assay type: functional
Kocuria rhizophila = assay: Antibacterial activity against Kocuria rhizophila DSM1790 assessed as inhibition of bacterial growth by broth microdilution method; assay type: functional
Escherichia coli = assay: Antibacterial activity against Escherichia coli DSM1116 assessed as inhibition of bacterial growth by broth microdilution method; assay type: functional

Compound	Activity (PC-3)	MIC (Staphylococcus aureus)	Activity (SK-OV-3)	Activity (A549)	Activity (A-431)	Activity (MCF7)	Activity (L929)	Activity (KB 3-1)	further results
NYSTATIN	–	–	–	–	–	–	–	–	MIC [1]: 16.7 mg/L; MIC (Mucor hiemalis): 8.3 mg/L; MIC (Wickerhamomyces anomalus): 2.1 mg/L; MIC (Rhodotorula glutinis): 1 mg/L; MIC (Candida albicans): 2.1 mg/L
NC[C@H]1O[C@H](O[C@H]2[C@H](O)[C@@H](O[C@H]3O[C@H](CO)[C@@H](O)[C@H](N)[C@H]3O)[C@H](N)C[C@@H]2N)[C@H](N)[C@@H](O)[C@@H]1O [BEKANAMYCIN]	–	–	–	–	–	–	–	–	MIC [2]: 2.1 mg/L (≈ 4.34 µM)
O=C(O)C[C@H](O)C1(c2cccc(O)c2O)Oc2cccc3cccc(c23)O1	inactive	66.6 mg/L (≈ 181 µM)	inactive	inactive	inactive	inactive	inactive	inactive	–
CN(C)[C@@H]1C(O)=C(C(N)=O)C(=O)[C@@]2(O)C(O)=C3C(=O)c4c(O)cccc4[C@@](C)(O)[C@H]3[C@H](O)[C@@H]12.Cl [OXYTETRACYCLINE HYDROCHLORIDE]	–	0.1 mg/L	–	–	–	–	–	–	MIC [3]: 0.4 mg/L; MIC (Bacillus subtilis): 4.2 mg/L; MIC (Kocuria rhizophila): 0.4 mg/L; MIC (Escherichia coli): 1.7 mg/L
COC(=O)C[C@H](O)C1(c2cccc(O)c2O)Oc2cccc3cccc(c23)O1	inactive	66.6 mg/L (≈ 174 µM)	inactive	inactive	inactive	inactive	inactive	inactive	–
